Measured values as given in the NIST ThermoML archive (doi:10.1021/je900916e).

Assay: cn = amount concentration of the nth substance listed, in mol/dm3
Settings: 101 kPa, Liquid, Advanced Conductivity Orion 162A

C[N+](C)(C)C.O=C([O-])C(F)(F)C(F)(F)C(F)(F)C(F)(F)C(F)(F)C(F)(F)C(F)(F)F [tetramethylammonium perfluorooctanoate] + O
Settings | electrical conductivity [S/m]
288.15 K, c1 = 0.001316 | 0.00725
288.15 K, c1 = 0.002597 | 0.0135
288.15 K, c1 = 0.003846 | 0.01958
288.15 K, c1 = 0.005063 | 0.0253
288.15 K, c1 = 0.00625 | 0.0306
288.15 K, c1 = 0.007407 | 0.0357
288.15 K, c1 = 0.008536 | 0.0405
288.15 K, c1 = 0.009638 | 0.0451
288.15 K, c1 = 0.01071 | 0.0494
288.15 K, c1 = 0.01176 | 0.0536
288.15 K, c1 = 0.01279 | 0.0574
288.15 K, c1 = 0.01379 | 0.0598
288.15 K, c1 = 0.01477 | 0.0611
288.15 K, c1 = 0.01573 | 0.0622
288.15 K, c1 = 0.01704 | 0.0637
288.15 K, c1 = 0.01848 | 0.0656
288.15 K, c1 = 0.02004 | 0.0675
288.15 K, c1 = 0.02171 | 0.0693
288.15 K, c1 = 0.02331 | 0.0714
288.15 K, c1 = 0.02485 | 0.0732
293.15 K, c1 = 0.001316 | 0.00808
293.15 K, c1 = 0.002597 | 0.01512
293.15 K, c1 = 0.003846 | 0.0218
293.15 K, c1 = 0.005063 | 0.0282
293.15 K, c1 = 0.00625 | 0.0341
293.15 K, c1 = 0.007407 | 0.0401
293.15 K, c1 = 0.008537 | 0.0455
293.15 K, c1 = 0.009638 | 0.0503
293.15 K, c1 = 0.01071 | 0.0551
293.15 K, c1 = 0.01176 | 0.0597
293.15 K, c1 = 0.01279 | 0.0634
293.15 K, c1 = 0.01379 | 0.0657
293.15 K, c1 = 0.01477 | 0.0675
293.15 K, c1 = 0.01573 | 0.0691
293.15 K, c1 = 0.01667 | 0.0706
293.15 K, c1 = 0.01803 | 0.0726
293.15 K, c1 = 0.01935 | 0.0745
293.15 K, c1 = 0.02063 | 0.0764
293.15 K, c1 = 0.02187 | 0.0781
293.15 K, c1 = 0.02347 | 0.0803
293.15 K, c1 = 0.025 | 0.0825
298.15 K, c1 = 0.001234 | 0.0087
298.15 K, c1 = 0.002439 | 0.01642
298.15 K, c1 = 0.003614 | 0.0236
298.15 K, c1 = 0.004762 | 0.0304
298.15 K, c1 = 0.005882 | 0.0371
298.15 K, c1 = 0.006977 | 0.0435
298.15 K, c1 = 0.008046 | 0.0498
298.15 K, c1 = 0.009091 | 0.0554
298.15 K, c1 = 0.01011 | 0.0612
298.15 K, c1 = 0.01111 | 0.0661
298.15 K, c1 = 0.01209 | 0.0713
298.15 K, c1 = 0.01304 | 0.0744
298.15 K, c1 = 0.01398 | 0.0766
298.15 K, c1 = 0.01489 | 0.0785
298.15 K, c1 = 0.01579 | 0.0801
298.15 K, c1 = 0.0171 | 0.0823
298.15 K, c1 = 0.01837 | 0.0844
298.15 K, c1 = 0.02 | 0.087
298.15 K, c1 = 0.02157 | 0.0895
298.15 K, c1 = 0.02308 | 0.092
298.15 K, c1 = 0.02453 | 0.0944
298.15 K, c1 = 0.02593 | 0.0968
303.15 K, c1 = 0.001316 | 0.00997
303.15 K, c1 = 0.002597 | 0.01874
303.15 K, c1 = 0.003846 | 0.0272
303.15 K, c1 = 0.005063 | 0.0352
303.15 K, c1 = 0.00625 | 0.0427
303.15 K, c1 = 0.007407 | 0.0498
303.15 K, c1 = 0.008537 | 0.0566
303.15 K, c1 = 0.009638 | 0.063
303.15 K, c1 = 0.01071 | 0.0691
303.15 K, c1 = 0.01176 | 0.0748
303.15 K, c1 = 0.01279 | 0.0795
303.15 K, c1 = 0.01379 | 0.0823
303.15 K, c1 = 0.01477 | 0.0844
303.15 K, c1 = 0.01573 | 0.0864
303.15 K, c1 = 0.01667 | 0.0884
303.15 K, c1 = 0.01803 | 0.0912
303.15 K, c1 = 0.01935 | 0.0938
303.15 K, c1 = 0.02063 | 0.0964
303.15 K, c1 = 0.02187 | 0.0988
303.15 K, c1 = 0.02347 | 0.1017
303.15 K, c1 = 0.025 | 0.1045
308.15 K, c1 = 0.001316 | 0.01109
308.15 K, c1 = 0.002597 | 0.0209
308.15 K, c1 = 0.003846 | 0.0302
308.15 K, c1 = 0.005063 | 0.0388
308.15 K, c1 = 0.00625 | 0.0475
308.15 K, c1 = 0.007407 | 0.0554
308.15 K, c1 = 0.008536 | 0.0626
308.15 K, c1 = 0.009638 | 0.07
308.15 K, c1 = 0.01071 | 0.077
308.15 K, c1 = 0.01176 | 0.0828
308.15 K, c1 = 0.01279 | 0.0888
308.15 K, c1 = 0.01379 | 0.0918
308.15 K, c1 = 0.01477 | 0.095
308.15 K, c1 = 0.01573 | 0.0969
308.15 K, c1 = 0.01667 | 0.0996
308.15 K, c1 = 0.01758 | 0.101
308.15 K, c1 = 0.01848 | 0.1029
308.15 K, c1 = 0.02021 | 0.1067
308.15 K, c1 = 0.02188 | 0.1102
308.15 K, c1 = 0.02347 | 0.1136
308.15 K, c1 = 0.025 | 0.1168
308.15 K, c1 = 0.02647 | 0.1208
313.15 K, c1 = 0.001316 | 0.01241
313.15 K, c1 = 0.002597 | 0.0231
313.15 K, c1 = 0.003846 | 0.0333
313.15 K, c1 = 0.005063 | 0.0428
313.15 K, c1 = 0.00625 | 0.0521
313.15 K, c1 = 0.007407 | 0.0608
313.15 K, c1 = 0.008537 | 0.0687
313.15 K, c1 = 0.009638 | 0.0765
313.15 K, c1 = 0.01071 | 0.0841
313.15 K, c1 = 0.01176 | 0.0905
313.15 K, c1 = 0.01279 | 0.0971
313.15 K, c1 = 0.01379 | 0.1009
313.15 K, c1 = 0.01477 | 0.1039
313.15 K, c1 = 0.01573 | 0.1067
313.15 K, c1 = 0.01667 | 0.1091
313.15 K, c1 = 0.01803 | 0.1125
313.15 K, c1 = 0.01935 | 0.1158
313.15 K, c1 = 0.02063 | 0.119
313.15 K, c1 = 0.02187 | 0.122
313.15 K, c1 = 0.02347 | 0.1258
313.15 K, c1 = 0.025 | 0.1294
318.15 K, c1 = 0.001316 | 0.01322
318.15 K, c1 = 0.002597 | 0.0253
318.15 K, c1 = 0.003846 | 0.0367
318.15 K, c1 = 0.005063 | 0.0466
318.15 K, c1 = 0.00625 | 0.0564
318.15 K, c1 = 0.007407 | 0.0659
318.15 K, c1 = 0.008536 | 0.0745
318.15 K, c1 = 0.009638 | 0.0838
318.15 K, c1 = 0.01071 | 0.0921
318.15 K, c1 = 0.01176 | 0.0993
318.15 K, c1 = 0.01279 | 0.1064
318.15 K, c1 = 0.01379 | 0.1119
318.15 K, c1 = 0.01477 | 0.1156
318.15 K, c1 = 0.01573 | 0.1188
318.15 K, c1 = 0.01667 | 0.1218
318.15 K, c1 = 0.01803 | 0.1263
318.15 K, c1 = 0.01935 | 0.1307
318.15 K, c1 = 0.02105 | 0.1349
318.15 K, c1 = 0.02268 | 0.14
318.15 K, c1 = 0.02424 | 0.1434
318.15 K, c1 = 0.02574 | 0.1473
